Test results as given in patent US20120245137A1 (Zalicus Pharmaceuticals Ltd., priority 2009, published 2012).

Legend:
Assay type in all cases: cell-based
[1] = target: N-type calcium channel subunits (α1B, α2δ, and β3a) (Homo sapiens, UniProt Q00975); assay: Block of Cav2.2 channel, whole cell voltage clamp, manual and PatchXpress; settings: Table 5; table follows Assay Example 3 (whole cell voltage clamp / PatchXpress); assay not given
Outline: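 Percent block taken as current amplitude ratio with versus without compound, applied in rising doses; IC50 fitted where one cell received multiple doses. Protocol: 50 ms pulses to +20 mV at 0.067 Hz from […] or −90 mV holding; P/n leak subtraction, no junction-potential correction; manual and PatchXpress recordings.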

[2] = target: human α1H T-type channels (Homo sapiens, UniProt O95180); assay: T-type calcium channel block, whole cell patch clamp, α1H; settings: HEK cells stably expressing human α1H; mainly non-inactivated protocol; values above 10,000 nM represented as 10000
Sequence of human α1H T-type channels (O95180 whole entry, the tested form may be a part): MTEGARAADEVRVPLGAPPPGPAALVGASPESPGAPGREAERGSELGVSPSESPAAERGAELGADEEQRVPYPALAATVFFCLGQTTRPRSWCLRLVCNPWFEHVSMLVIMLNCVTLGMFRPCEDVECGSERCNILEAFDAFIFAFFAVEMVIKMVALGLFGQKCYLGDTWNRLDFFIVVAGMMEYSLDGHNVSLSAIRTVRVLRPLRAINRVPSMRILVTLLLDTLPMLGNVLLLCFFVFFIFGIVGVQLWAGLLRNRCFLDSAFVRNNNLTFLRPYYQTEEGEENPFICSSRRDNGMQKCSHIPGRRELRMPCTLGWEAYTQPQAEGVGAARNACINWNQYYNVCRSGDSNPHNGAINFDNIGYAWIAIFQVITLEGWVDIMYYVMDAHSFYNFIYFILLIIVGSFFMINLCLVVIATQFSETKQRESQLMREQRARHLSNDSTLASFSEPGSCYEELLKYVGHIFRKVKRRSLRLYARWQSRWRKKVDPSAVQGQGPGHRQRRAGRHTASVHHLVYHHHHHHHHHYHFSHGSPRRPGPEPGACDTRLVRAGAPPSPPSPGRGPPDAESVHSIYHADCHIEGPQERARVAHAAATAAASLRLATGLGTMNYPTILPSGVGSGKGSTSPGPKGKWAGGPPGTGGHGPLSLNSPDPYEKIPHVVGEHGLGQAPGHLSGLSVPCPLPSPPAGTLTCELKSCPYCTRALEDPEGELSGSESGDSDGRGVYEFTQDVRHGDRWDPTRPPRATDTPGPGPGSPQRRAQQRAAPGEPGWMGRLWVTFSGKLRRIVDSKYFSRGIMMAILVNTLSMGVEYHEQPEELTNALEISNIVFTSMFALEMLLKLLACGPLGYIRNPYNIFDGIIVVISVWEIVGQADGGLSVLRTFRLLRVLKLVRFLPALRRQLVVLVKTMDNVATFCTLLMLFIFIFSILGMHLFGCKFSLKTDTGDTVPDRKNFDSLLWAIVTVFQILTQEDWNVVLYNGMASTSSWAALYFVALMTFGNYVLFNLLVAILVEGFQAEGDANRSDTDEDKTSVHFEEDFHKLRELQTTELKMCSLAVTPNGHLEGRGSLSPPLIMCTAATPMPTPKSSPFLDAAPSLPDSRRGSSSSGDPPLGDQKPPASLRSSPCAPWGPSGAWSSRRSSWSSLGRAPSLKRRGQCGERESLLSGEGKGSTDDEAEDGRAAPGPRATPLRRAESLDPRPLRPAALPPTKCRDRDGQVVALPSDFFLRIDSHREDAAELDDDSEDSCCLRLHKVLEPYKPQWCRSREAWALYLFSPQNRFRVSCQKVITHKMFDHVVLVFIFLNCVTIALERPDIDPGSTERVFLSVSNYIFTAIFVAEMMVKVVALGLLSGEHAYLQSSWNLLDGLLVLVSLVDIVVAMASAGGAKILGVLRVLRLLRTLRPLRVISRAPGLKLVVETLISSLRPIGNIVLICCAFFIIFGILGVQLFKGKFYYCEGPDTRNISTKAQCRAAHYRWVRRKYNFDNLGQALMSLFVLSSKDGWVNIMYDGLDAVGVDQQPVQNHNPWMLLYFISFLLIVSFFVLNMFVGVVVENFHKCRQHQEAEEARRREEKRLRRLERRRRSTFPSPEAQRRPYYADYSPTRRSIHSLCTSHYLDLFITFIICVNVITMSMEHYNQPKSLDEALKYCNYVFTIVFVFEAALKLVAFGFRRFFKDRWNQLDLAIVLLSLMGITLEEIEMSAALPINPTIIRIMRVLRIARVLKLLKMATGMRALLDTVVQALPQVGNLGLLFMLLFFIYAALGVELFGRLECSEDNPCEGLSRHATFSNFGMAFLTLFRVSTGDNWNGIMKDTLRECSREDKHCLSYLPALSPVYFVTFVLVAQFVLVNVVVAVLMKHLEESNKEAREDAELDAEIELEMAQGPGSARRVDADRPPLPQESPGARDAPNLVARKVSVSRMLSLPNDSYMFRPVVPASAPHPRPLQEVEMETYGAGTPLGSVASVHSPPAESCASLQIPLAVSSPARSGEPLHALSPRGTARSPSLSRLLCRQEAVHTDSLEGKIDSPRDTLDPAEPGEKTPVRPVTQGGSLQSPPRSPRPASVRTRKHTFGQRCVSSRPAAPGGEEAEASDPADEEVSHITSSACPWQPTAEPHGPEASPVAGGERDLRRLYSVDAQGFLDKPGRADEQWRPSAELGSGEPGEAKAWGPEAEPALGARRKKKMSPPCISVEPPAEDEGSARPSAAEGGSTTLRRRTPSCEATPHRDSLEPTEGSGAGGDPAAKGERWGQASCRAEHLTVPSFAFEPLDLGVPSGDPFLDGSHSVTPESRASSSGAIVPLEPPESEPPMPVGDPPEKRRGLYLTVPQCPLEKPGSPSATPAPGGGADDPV
Outline: (§1)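 Read-out: current block in whole-cell patch clamp of HEK 293 cells stably expressing human α1G or α1H subunits. Compounds were perfused locally in external solution (0.1-0.01% DMSO) under resting and inactivating voltage protocols.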

[3] = target: human α1G T-type channels (Homo sapiens, UniProt O43497); assay: T-type calcium channel block, whole cell patch clamp, α1G; settings: HEK cells stably expressing human α1G; mainly non-inactivated protocol; values above 10,000 nM represented as 10000
Sequence of human α1G T-type channels (O43497 whole entry): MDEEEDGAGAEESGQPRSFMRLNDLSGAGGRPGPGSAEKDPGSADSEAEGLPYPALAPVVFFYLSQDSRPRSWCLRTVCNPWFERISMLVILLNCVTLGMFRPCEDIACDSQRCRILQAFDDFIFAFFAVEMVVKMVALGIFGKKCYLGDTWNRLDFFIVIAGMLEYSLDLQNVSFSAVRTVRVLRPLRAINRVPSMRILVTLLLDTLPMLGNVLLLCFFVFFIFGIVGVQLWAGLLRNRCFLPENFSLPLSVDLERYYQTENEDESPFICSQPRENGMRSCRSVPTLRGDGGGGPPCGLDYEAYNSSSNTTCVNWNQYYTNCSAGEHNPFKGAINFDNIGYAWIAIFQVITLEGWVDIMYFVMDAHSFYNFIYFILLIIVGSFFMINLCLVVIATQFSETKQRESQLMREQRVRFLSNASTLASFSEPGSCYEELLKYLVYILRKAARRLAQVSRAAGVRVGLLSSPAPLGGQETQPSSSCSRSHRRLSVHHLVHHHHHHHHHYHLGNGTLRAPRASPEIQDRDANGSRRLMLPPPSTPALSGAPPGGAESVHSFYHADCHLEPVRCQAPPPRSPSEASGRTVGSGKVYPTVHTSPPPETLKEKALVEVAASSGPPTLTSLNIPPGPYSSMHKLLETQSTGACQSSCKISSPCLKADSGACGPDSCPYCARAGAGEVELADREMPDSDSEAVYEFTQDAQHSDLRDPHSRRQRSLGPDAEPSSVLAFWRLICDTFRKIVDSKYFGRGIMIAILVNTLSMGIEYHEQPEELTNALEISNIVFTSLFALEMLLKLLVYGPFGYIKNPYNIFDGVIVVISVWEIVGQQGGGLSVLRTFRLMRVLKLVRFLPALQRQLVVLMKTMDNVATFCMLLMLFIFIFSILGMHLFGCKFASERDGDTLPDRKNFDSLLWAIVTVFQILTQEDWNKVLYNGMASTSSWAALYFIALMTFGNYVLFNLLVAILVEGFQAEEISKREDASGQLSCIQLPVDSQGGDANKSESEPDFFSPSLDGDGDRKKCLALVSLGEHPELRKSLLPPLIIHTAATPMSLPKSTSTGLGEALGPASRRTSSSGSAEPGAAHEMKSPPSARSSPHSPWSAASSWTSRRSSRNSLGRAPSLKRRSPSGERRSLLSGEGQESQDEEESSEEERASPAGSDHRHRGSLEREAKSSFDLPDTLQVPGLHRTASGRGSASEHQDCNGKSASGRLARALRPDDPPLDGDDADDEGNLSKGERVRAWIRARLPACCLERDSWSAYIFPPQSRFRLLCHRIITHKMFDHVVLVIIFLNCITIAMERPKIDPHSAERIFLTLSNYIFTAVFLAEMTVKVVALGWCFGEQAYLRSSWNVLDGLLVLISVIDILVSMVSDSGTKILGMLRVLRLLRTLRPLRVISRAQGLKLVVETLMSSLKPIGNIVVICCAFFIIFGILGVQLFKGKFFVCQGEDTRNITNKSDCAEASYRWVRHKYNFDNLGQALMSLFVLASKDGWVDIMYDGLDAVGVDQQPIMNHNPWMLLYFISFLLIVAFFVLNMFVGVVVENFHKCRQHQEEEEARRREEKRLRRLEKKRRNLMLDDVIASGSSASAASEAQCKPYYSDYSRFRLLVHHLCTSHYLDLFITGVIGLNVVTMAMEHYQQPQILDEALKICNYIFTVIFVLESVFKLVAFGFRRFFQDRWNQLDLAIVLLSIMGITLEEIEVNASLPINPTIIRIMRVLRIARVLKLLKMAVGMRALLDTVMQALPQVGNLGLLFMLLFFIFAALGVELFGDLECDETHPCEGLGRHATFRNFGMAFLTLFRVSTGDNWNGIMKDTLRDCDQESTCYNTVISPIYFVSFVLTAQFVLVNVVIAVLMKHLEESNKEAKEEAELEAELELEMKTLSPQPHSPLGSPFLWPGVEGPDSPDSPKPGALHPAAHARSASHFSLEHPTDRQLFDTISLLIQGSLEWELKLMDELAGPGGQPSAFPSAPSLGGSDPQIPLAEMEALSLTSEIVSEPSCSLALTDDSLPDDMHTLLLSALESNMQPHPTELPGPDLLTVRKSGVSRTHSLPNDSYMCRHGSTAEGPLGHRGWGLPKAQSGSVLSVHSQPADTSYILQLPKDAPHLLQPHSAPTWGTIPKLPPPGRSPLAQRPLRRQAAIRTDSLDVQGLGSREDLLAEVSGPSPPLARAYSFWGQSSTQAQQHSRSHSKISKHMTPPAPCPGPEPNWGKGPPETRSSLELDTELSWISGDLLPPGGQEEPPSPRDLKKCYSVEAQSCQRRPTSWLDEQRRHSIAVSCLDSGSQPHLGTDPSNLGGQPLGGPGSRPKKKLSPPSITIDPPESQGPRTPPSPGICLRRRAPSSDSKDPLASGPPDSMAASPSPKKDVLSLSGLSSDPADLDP
Outline: as §1

Structure (SMILES)	IC50 [1]	IC50 [2]	IC50 [3]
O=C(N[C@H]1CC[C@@](F)(S(=O)(=O)c2cccc(C(F)(F)F)c2)CC1)[C@@H]1C[C@@H](Cc2ccc(F)cc2)CN1 [Compound 287, (2S,4R)-N-((1S,4R)-4-fluoro-4-(3-(trifluoromethyl)phenylsulfonyl)cyclohexyl)-4-(4-fluorobenzyl)pyrrolidine-2-carboxamide]	310 nM	1.13 µM	6.5 µM
O=C(N[C@H]1CC[C@@](F)(S(=O)(=O)c2cccc(C(F)(F)F)c2)CC1)[C@H]1CC[C@@H](c2ccccc2)N1 [Compound 288, (2R,5S)-N-((1S,4S)-4-fluoro-4-(3-(trifluoromethyl)phenylsulfonyl)cyclohexyl)-5-phenylpyrrolidine-2-carboxamide]	640 nM	3.26 µM	> 10 µM
O=C(N[C@H]1CC[C@@](F)(S(=O)(=O)c2cccc(C(F)(F)F)c2)CC1)[C@@H]1CC[C@H](c2ccccc2)N1 [Compound 289]	540 nM	1.04 µM	1.4 µM
O=C1c2ccc(C(F)(F)F)nc2CN1[C@H]1CC[C@@](F)(S(=O)(=O)c2cccc(C(F)(F)F)c2)CC1 [Compound 290, 6-((1S,4S)-4-f1uoro-4-(3-(trifluoromethyl)phenylsulfonyl)cyclohexyl)-2-(trifluoromethyl)-6,dihydro-5Hpyrrolo[3,4-b]pyridin-5-one]	420 nM	0.57 µM	1.18 µM
CC(C)(C(=O)N[C@H]1CC[C@@](F)(S(=O)(=O)c2cccc(C(F)(F)F)c2)CC1)S(=O)(=O)c1cccc(C(F)(F)F)c1 [Compound 291, N-((1S,4S)-4-fluoro-4-(3-(trifluoromethyl)phenylsulfonyl)cyclohexyl)-2-methyl-2-(3-(trifluoromethyl)phenylsulfonyl)propanamide]	50 nM	6.06 µM	> 10 µM
Cc1nn(C)c(C)c1S(=O)(=O)N[C@H]1CC[C@@](F)(S(=O)(=O)c2cccc(C(F)(F)F)c2)CC1 [Compound 293, N-((1S,4S)-4-fluoro-4-(3-(trifluoromethyl)phenylsulfonyl)cyclohexyl)-1,3,5-trimethyl-1H-pyrazole-4-sulfonamide]	1630 nM	1.85 µM	4.77 µM
O=S(=O)(CCC(F)(F)F)N[C@H]1CC[C@@](F)(S(=O)(=O)c2cccc(C(F)(F)F)c2)CC1 [Compound 295, 3,3,3-trifluoro-N-((1S,4S)-4-fluoro-4-(3-(trifluoromethyl)phenylsulfonyl)cyclohexyl) propane-1-sulfonamide]	790 nM	0.32 µM	0.63 µM
Cn1cnc(S(=O)(=O)N[C@H]2CC[C@@](F)(S(=O)(=O)c3cccc(C(F)(F)F)c3)CC2)c1 [Compound 296, N-((1S,4S)-4-fluoro-4-(3-(trifluoromethyl)phenylsulfonyl)cyclohexyl)-1-methyl-1H-imidazole-4-sulfonamide]	4230 nM	0.85 µM	2.83 µM
O=S(=O)(N[C@H]1CC[C@@](F)(S(=O)(=O)c2cccc(C(F)(F)F)c2)CC1)c1ccc(C(F)(F)F)cc1Cl [Compound 297, 2-chloro-N-((1S,4S)-4-fluoro-4-(3-(trifluoromethyl)phenylsulfonyl)cyclohexyl)-4-(trifluoromethyl) benzenesulfonamide]	720 nM	0.3 µM	0.85 µM
Cc1noc(C)c1S(=O)(=O)N[C@H]1CC[C@@](F)(S(=O)(=O)c2cccc(C(F)(F)F)c2)CC1 [Compound 298, N-((1S,4S)-4-fluoro-4-(3-(trifluoromethyl)phenylsulfonyl)cyclohexyl)-3,5-dimethylisoxazole-4-sulfonamide]	850 nM	0.24 µM	0.88 µM
O=S(=O)(N[C@H]1CC[C@@](F)(S(=O)(=O)c2cccc(C(F)(F)F)c2)CC1)c1ccccc1C(F)(F)F [Compound 299, N-((1S,4S)-4-fluoro-4-(3-(trifluoromethyl)phenylsulfonyl)cyclohexyl)-2-(trifluoromethyl) benzenesulfonamide]	730 nM	0.21 µM	0.64 µM
O=S(=O)(N[C@H]1CC[C@@](F)(S(=O)(=O)c2cccc(C(F)(F)F)c2)CC1)c1cccc(C(F)(F)F)c1 [Compound 300, N-((1S,4S)-4-fluoro-4-(3-(trifluoromethyl)phenylsulfonyl)cyclohexyl)-3-(trifluoromethyl) benzenesulfonamide]	700 nM	0.43 µM	0.28 µM
O=S(=O)(N[C@H]1CC[C@@](F)(S(=O)(=O)c2cccc(C(F)(F)F)c2)CC1)c1ccc(OC(F)(F)F)cc1 [Compound 302, N-((1S,4S)-4-fluoro-4-(3-(trifluoromethyl)phenylsultonyl)cyclohexyl)-4-(trifluoromethoxy) benzenesulfonamide]	400 nM	0.85 µM	0.97 µM
CC1(C(=O)N[C@H]2CC[C@@](F)(S(=O)(=O)c3cccc(C(F)(F)F)c3)CC2)CC1 [Compound 303, N-((1S,4S)-4-fluoro-4-(3-(tritluoromethyl)phenylsulfonyl)cyclohexyl)-1-methylcyclopropane carboxamide]	180 nM	4.15 µM	4.34 µM
O=C(N[C@H]1CC[C@@](F)(S(=O)(=O)c2cccc(C(F)(F)F)c2)CC1)[C@H]1C[C@@H]1c1ccccc1 [Compound 304, (1S,2S)-N-((1S,4R)-4-fluoro-4-(3-(trifluoromethyl)phenylsulfonyl)cyclohexyl)-2-phenylcyclopropane carboxamide]	230 nM	2.44 µM	1.55 µM
O=C(N[C@H]1CC[C@@](F)(S(=O)(=O)c2cccc(C(F)(F)F)c2)CC1)C1CCC(F)(F)CC1 [Compound 305, 4,4-difluoro-N-((1S,4S)-4-fluoro-4-(3-(trifluoromethyl)phenylsulfonyl)cyclohexyl) cyclohexanecarboxamide]	300 nM	> 10 µM	> 10 µM
CC(C)(N)CN(C(=O)C(F)(F)F)[C@H]1CC[C@@](F)(S(=O)(=O)c2cccc(C(F)(F)F)c2)CC1 [Compound 306, N-(2-amino-2-methylpropyl)-2,2,2-trifluoro-N-((1S,4S)-4-tluoro-4-(3-(trifIuoromethyl)phenylsulfonyl)cyclohexyl) acetamide]	530 nM	7.35 µM	4.96 µM
Cn1nc(C(F)(F)F)cc1C(=O)NC1(C)CCC(S(=O)(=O)c2cccc(C(F)(F)F)c2)CC1 (stereo not drawn) [Compound 307, 1-methyl-N-(1-methyl-4-(3-(trifluoromethyl)phenylsulfonyl)cyclohexyl)-3-(tritluoromethyl)-1H-pyrazole-5-carboxamide]	3120 nM	1.54 µM	2.41 µM
CC1(NC(=O)c2cc(C(F)(F)F)ccn2)CCC(S(=O)(=O)c2cccc(C(F)(F)F)c2)CC1 (stereo not drawn) [Compound 308, N-(1-methyl-4-(3-(trifluoromethyl)phenylsulfonyl)cyclohexyl)-4-(trifluoromethyl)picolinamide]	1450 nM	2.27 µM	4.2 µM
CC1(NC(=O)c2ccc(F)c(C(F)(F)F)c2)CCC(S(=O)(=O)c2cccc(C(F)(F)F)c2)CC1 (stereo not drawn) [Compound 309, 4-fluoro-N-(1-methyl-4-(3-(trifluoromethyl)phenylsulfonyl)cyclohexyl)-3-(trifluoromethyl)benzamide]	1390 nM	> 10 µM	9.9 µM
